Among the test systems are SK-MEL-2; HOP-92; A549; HOP-62; SF-268; MDA-MB-435; MOLT-4; UACC-62; SK-OV-3; SK-MEL-28; HCT-15; PC-3; UO-31; NCI-H522; NCI-H460; SN12C; NCI/ADR-RES; OVCAR-5; DU-145; A498.
Experiment in all cases: NCI anticancer screen, dose series, 48 h

Data on ten compounds can be found in ChEMBL document CHEMBL1201862, “PubChem BioAssay data set” (2004).

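Test compounds were applied to cells in 96-well plates for 48 hours at 5 doses. GI50 = concentration required for 50% inhibition of growth.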 Activity calls are given as the source filed them. Cut-off read from the data, not from the text of the source: active = GI50 up to about 1.1 µM and inactive = higher.

In the case of `COC(=O)C1=C(OC(=O)/C(=C/c2ccccc2)c2ccc(Cl)cc2)C(C(=O)OC)[C@@]2(O)[C@@H](C(=O)OC)[C@H](C)C[C@@H]1[C@@H]2C(=O)OC` (stereo not given in full), the GI50 is > 100 µM (inactive) in the test on SK-MEL-2; 29.1 µM (inactive) in the test on HOP-92; > 100 µM (inactive) in the test on A549; > 100 µM (inactive) with HOP-62; > 100 µM (inactive) in the test on SF-268; > 100 µM (inactive) with MDA-MB-435. The GI50 with MOLT-4 was 79.3 µM (inactive); in the test with UACC-62 it was > 100 µM (inactive); in the test on SK-OV-3 it was > 100 µM (inactive); with SK-MEL-28, > 100 µM (inactive); in the test on HCT-15, above 100 µM; in the test on PC-3, > 100 µM (inactive). Further, the GI50 in the test on UO-31, in the test on NCI-H522, in the test with NCI-H460, with SN12C, with NCI/ADR-RES and with OVCAR-5 was > 100 µM (inactive) throughout. Further, the GI50 in the test with DU-145 and with A498 was > 100 µM (inactive) in each case.
For `COc1ccc(-c2c(C#N)c(N)nc(Sc3ccccc3N)c2C#N)cc1`, the GI50 with SK-MEL-2 is 9.57 µM (inactive); with HOP-92 it was 4.79 µM (inactive); in the test with A549, 17.6 µM (inactive); with HOP-62 it was 6.1 µM (inactive); with SF-268, 5.77 µM (inactive); with MDA-MB-435, > 83 µM (inactive). Also, the GI50 was > 71 µM (inactive) in the test on MOLT-4; 9.46 µM (inactive) with UACC-62; 9.53 µM (inactive) with SK-OV-3; > 50.9 µM (inactive) in the test on SK-MEL-28; 24 µM in the test on HCT-15; 12.9 µM (inactive) in the test with PC-3. For the same compound, the GI50 in the test on UO-31 is 13.3 µM (inactive); in the test with NCI-H522, 10 µM (inactive); in the test with NCI-H460 it was 19 µM (inactive); with SN12C, 9.66 µM (inactive); in the test on NCI/ADR-RES, 7.69 µM (inactive); in the test with OVCAR-5, > 53.5 µM (inactive). The GI50 was > 47.6 µM (inactive) in the test on DU-145 and 4.73 µM (inactive) in the test on A498.
Take `N#Cc1cc2c(cc1C#N)SCCSCCCSCCS2`: the GI50 is 17.8 µM (inactive) in the test with SK-MEL-2; 2.49 µM (inactive) in the test on HOP-92; > 83.9 µM (inactive) in the test on A549; 1.71 µM (inactive) in the test on HOP-62; 10.3 µM (inactive) with SF-268; > 100 µM (inactive) in the test on MDA-MB-435. For the same compound, the GI50 was > 89.9 µM (inactive) in the test on MOLT-4; 9.93 µM (inactive) in the test with UACC-62; 12 µM (inactive) in the test on SK-OV-3; > 100 µM (inactive) in the test on SK-MEL-28; 14.6 µM in the test on HCT-15; 21.9 µM (inactive) in the test with PC-3. The GI50 in the test with UO-31 is > 53.3 µM (inactive); with NCI-H522 it was 25.8 µM (inactive); with NCI-H460, 15.2 µM (inactive); with SN12C, 41.9 µM (inactive); in the test with NCI/ADR-RES, 30.5 µM (inactive); in the test on OVCAR-5 it was > 72.3 µM (inactive). Besides, the figures for the GI50 in the test on DU-145 and with A498 were 56.5 µM (inactive) and 40.8 µM (inactive), respectively.
For the compound `COC1C(N)C(OC2C(Oc3cccc4c(O)c5c(=O)oc6ccc(C)c7c(=O)oc(c34)c5c67)OC(C)C(O)C2(C)O)OC(C)C1O` (stereo not given), the GI50 is 0.0108 µM (active) with SK-MEL-2; 0.0231 µM (active) in the test on HOP-92; 0.0634 µM (active) in the test on A549; 0.0428 µM (active) in the test on HOP-62; < 0.0119 µM (active) in the test on SF-268; 0.0313 µM (active) with MDA-MB-435. Further, the GI50 is < 0.0243 µM (active) in the test on MOLT-4; 0.0208 µM (active) in the test on UACC-62; 0.114 µM (active) in the test with SK-OV-3; 0.029 µM (active) in the test on SK-MEL-28; 0.0925 µM in the test with HCT-15; 0.0246 µM (active) with PC-3. Also, the GI50 is 0.0746 µM (active) in the test with UO-31; < 0.01 µM (active) in the test with NCI-H522; < 0.0122 µM (active) with NCI-H460; 0.0178 µM (active) with SN12C; 0.427 µM (active) in the test on NCI/ADR-RES; 0.27 µM (active) in the test on OVCAR-5. Moreover, the results for the GI50 in the test with DU-145 and in the test with A498 were 0.187 µM (active) and < 0.01 µM (active), respectively.
As to `Cc1n[nH]c(C(F)(F)F)c1/N=N/N1CCOCC1`, the GI50 was 13.1 µM (inactive) in the test on SK-MEL-2; 2.42 µM (inactive) in the test on HOP-92; 8.89 µM (inactive) in the test with A549; 8.77 µM (inactive) in the test on HOP-62; 13.1 µM (inactive) in the test with SF-268; 12.2 µM (inactive) with MDA-MB-435. The GI50 in the test with MOLT-4 is 1.84 µM (inactive); with UACC-62, 11 µM (inactive); with SK-OV-3, 16.6 µM (inactive); in the test with SK-MEL-28, 14.7 µM (inactive); in the test with HCT-15 it was 8.81 µM; in the test with PC-3 it was 7.16 µM (inactive). For the same compound, the GI50 with UO-31 is 2.4 µM (inactive); with NCI-H522, 3.94 µM (inactive); with NCI-H460, 4.27 µM (inactive); with SN12C, 11 µM (inactive); with NCI/ADR-RES, 6.76 µM (inactive); in the test on OVCAR-5, 6.37 µM (inactive). Besides, the GI50 in the test with DU-145 was 4.59 µM (inactive); with A498, 17.4 µM (inactive).
In the case of `O=C(c1ccccc1)c1ccc(N2C(=O)/C(=C/c3cccc(Oc4ccccc4)c3)N=C2c2ccccc2)c(N2C(=O)/C(=C/c3cccc(Oc4ccccc4)c3)N=C2c2ccccc2)c1`, the GI50 is 17.7 µM (inactive) in the test on SK-MEL-2; 88.5 µM (inactive) in the test with HOP-92; 31.6 µM (inactive) with A549; 67.5 µM (inactive) in the test with HOP-62; 36.3 µM (inactive) with SF-268; 4.72 µM (inactive) in the test on MDA-MB-435. Besides, the GI50 with MOLT-4 was 11.9 µM (inactive); in the test with UACC-62, 11.9 µM (inactive); in the test on SK-OV-3 it was 42.9 µM (inactive); with SK-MEL-28 it was 51.3 µM (inactive); in the test with HCT-15, 21.2 µM; in the test with PC-3, 26.5 µM (inactive). In addition, the GI50 is 33.3 µM (inactive) in the test on UO-31; 11.4 µM (inactive) in the test on NCI-H522; 23.9 µM (inactive) with NCI-H460; 92.3 µM (inactive) in the test with SN12C; 18.5 µM (inactive) with NCI/ADR-RES; 50.6 µM (inactive) in the test on OVCAR-5. Also, the GI50 is 46.5 µM (inactive) in the test on DU-145 and 33.1 µM (inactive) in the test on A498.
Turning to `O=C(CCCl)NN=C1NCCN1`, the GI50 with SK-MEL-2, with HOP-92, with A549, in the test on HOP-62, in the test with SF-268 and with MDA-MB-435 was > 100 µM (inactive) throughout. For the same compound, the GI50 in the test on MOLT-4 is > 100 µM (inactive); in the test with UACC-62 it was > 100 µM (inactive); in the test on SK-OV-3, > 100 µM (inactive); in the test on SK-MEL-28, > 100 µM (inactive); with HCT-15, above 100 µM; in the test with PC-3, > 100 µM (inactive). For the same compound, the GI50 in the test on UO-31, with NCI-H522, in the test on NCI-H460, in the test on SN12C, in the test on NCI/ADR-RES and in the test with OVCAR-5 was > 100 µM (inactive) each time. Besides, the GI50 in the test with DU-145 and in the test on A498 was > 100 µM (inactive) each time.
Consider `CCOP(=O)(OCC)/C(C#N)=C/c1ncc[nH]1`, for which the GI50 with SK-MEL-2, in the test on HOP-92, in the test on A549, with HOP-62, in the test with SF-268 and with MDA-MB-435 was > 100 µM (inactive) throughout. For the same compound, the GI50 in the test with MOLT-4 was > 100 µM (inactive); with UACC-62, > 100 µM (inactive); with SK-OV-3, > 100 µM (inactive); with SK-MEL-28 it was > 100 µM (inactive); with HCT-15 it was above 10 µM; in the test with PC-3 it was > 100 µM (inactive). The GI50 with UO-31, in the test with NCI-H522, with NCI-H460, in the test on SN12C, in the test on NCI/ADR-RES and in the test with OVCAR-5 was > 100 µM (inactive) in each case. Further, the GI50 in the test on DU-145 and in the test on A498 was > 100 µM (inactive) in each case.
`CC1(C)CCC[C@@]2(C)C1CC[C@@]1(CO)O[C@H](C3=CC(=O)OC3O)C[C@H]12` (stereo not given in full): the GI50 was 14.4 µM (inactive) in the test with SK-MEL-2; 19.1 µM (inactive) with HOP-92; 30.5 µM (inactive) in the test with A549; 14.9 µM (inactive) in the test with HOP-62; 19.7 µM (inactive) with SF-268; 11.5 µM (inactive) in the test with MDA-MB-435. The GI50 was 3.03 µM (inactive) in the test with MOLT-4; 3.89 µM (inactive) with UACC-62; 29.4 µM (inactive) with SK-OV-3; 11.4 µM (inactive) with SK-MEL-28; 7.57 µM in the test with HCT-15; 13.8 µM (inactive) in the test on PC-3. Besides, the GI50 was 15.2 µM (inactive) in the test on UO-31; 3.69 µM (inactive) in the test with NCI-H522; 17.7 µM (inactive) in the test with NCI-H460; 13.3 µM (inactive) in the test with SN12C; 15 µM (inactive) with NCI/ADR-RES; 22.8 µM (inactive) in the test on OVCAR-5. The results for the GI50 in the test on DU-145 and in the test on A498 were 13.3 µM (inactive) and 15 µM (inactive), respectively.
On to `CCN(CC)CCNc1ccc2nnn3c4ccc(O)cc4c(=O)c1c23`, for which the GI50 is 11.3 µM (inactive) with SK-MEL-2; 4.35 µM (inactive) with HOP-92; 0.161 µM (active) with A549; 1.76 µM (inactive) in the test with HOP-62; 6.49 µM (inactive) with SF-268; 3.56 µM (inactive) with MDA-MB-435. Moreover, the GI50 in the test on MOLT-4 was 0.0407 µM (active); in the test on UACC-62 it was 8.39 µM (inactive); in the test on SK-OV-3, 8.22 µM (inactive); with SK-MEL-28, 11.4 µM (inactive); in the test with HCT-15 it was 1.83 µM; with PC-3, 3.09 µM (inactive). Besides, the GI50 in the test with UO-31 was 0.608 µM (active); in the test on NCI-H522, 6.82 µM (inactive); in the test with NCI-H460, 0.0314 µM (active); in the test on SN12C it was 1.64 µM (inactive); in the test with NCI/ADR-RES it was 1.47 µM (inactive); with OVCAR-5, 8.02 µM (inactive). Moreover, the values for the GI50 in the test on DU-145 and in the test on A498 were 14.3 µM (inactive) and 8.83 µM (inactive), respectively.
